This test deals with T1, tubulin (α/β tubulin dimer).
T1 construct: with α- and β-tubulin heterodimer
As to the kind of experiment: in vitro tubulin polymerization assay, turbidity at […] nm (stabilization of polymerization). The class given is biochemical.

Structures are written as SMILES.

Usually EC50 stands for the concentration needed to bring the measured effect to its halfway point. A high value points to a less potent agent. For `CN(C)CCCNc1ccc2nnn3c4ccc(O)cc4c(=O)c1c23` [C-1305, 5-{[3-(Dimethylamino)propyl]amino}-8-hydroxy-6H-[1,2,3]triazolo[4,5,1-de]acridin-6-one], the half-maximal effective concentration (EC50) was determined as 2740 nM.
